{
  "source": "ChEMBL document CHEMBL6083237",
  "about": "“Adenanthin exhibits anti-inflammatory effects by covalently targeting the p65 subunit in the NF-κB signaling pathway” (Eur J Med Chem, 2024)",
  "key": {"HEK-293T [1]": {"system": "HEK-293T", "assay": "Antiproliferative activity against HEK293T cells assessed as inhibition of cell proliferation incubated for 72 hrs by Alamar Blue dye based fluorescence analysis", "format": "functional", "settings": "Homo sapiens"}, "HEK-293T [2]": {"system": "HEK-293T", "assay": "Antiproliferative activity against HEK293T cells overexpressing p65 assessed as inhibition of cell proliferation incubated for 72 hrs by Alamar Blue dye based fluorescence analysis", "format": "functional", "settings": "Homo sapiens"}, "[3]": {"assay": "Ratio of IC50 for antiproliferative activity against HEK293T cells overexpressing p65 C38A mutant to IC50 for HEK293T cells overexpressing p65", "format": "functional, Homo sapiens"}, "RAW264.7 [4]": {"system": "RAW264.7", "assay": "Inhibition of p65 nuclear translocation in LPS-stimulated mouse RAW264.7 cells at 1 to 10 uM incubated for 6 hrs by western blot analysis", "format": "cell-based", "settings": "dose 1-10 µM"}, "RAW264.7 [5]": {"system": "RAW264.7", "assay": "Inhibition of p65 phosphorylation in LPS-stimulated mouse RAW264.7 cells at 1 to 10 uM incubated for 6 hrs by wester blot analysis", "format": "cell-based", "settings": "dose 1-10 µM"}, "HEK-293T [6]": {"system": "HEK-293T", "assay": "Antiproliferative activity against mutant HEK293T cells overexpressing p65 C38A mutant assessed as inhibition of cell proliferation incubated for 72 hrs by Alamar Blue dye based fluorescence analysis", "format": "functional", "settings": "Homo sapiens"}, "RAW264.7 [7]": {"system": "RAW264.7", "assay": "Inhibition of NF-kappaB signaling pathway in mouse RAW264.7 cells assessed as decrease in COX-2 protein expression at 10 to 75 uM incubated for 6 hrs by western blot analysis", "format": "cell-based", "settings": "dose 10-75 µM"}, "[8]": {"molecular_target": "T1, NF-kappa-B inhibitor alpha (Mus musculus) (UniProt Q9Z1E3)", "T1 sequence (whole entry)": "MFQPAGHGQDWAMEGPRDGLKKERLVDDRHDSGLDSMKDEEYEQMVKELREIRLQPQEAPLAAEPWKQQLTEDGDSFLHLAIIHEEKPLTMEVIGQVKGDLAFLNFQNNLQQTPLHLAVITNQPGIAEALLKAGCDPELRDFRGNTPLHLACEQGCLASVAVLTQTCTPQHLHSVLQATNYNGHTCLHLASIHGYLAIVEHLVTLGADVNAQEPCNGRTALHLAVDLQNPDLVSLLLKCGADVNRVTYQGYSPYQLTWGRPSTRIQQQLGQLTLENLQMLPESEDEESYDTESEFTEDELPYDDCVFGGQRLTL", "assay": "Inhibition of IkappaB alpha phosphorylation in LPS-stimulated mouse RAW264.7 cells at 1 to 10 uM incubated for 6 hrs by western blot analysis", "format": "cell-based", "settings": "dose 1-10 µM"}, "Transcription factor p65 [9]": {"molecular_target": "T2, Transcription factor p65 (Homo sapiens, UniProt Q04206)", "T2 sequence (Q04206 whole entry)": "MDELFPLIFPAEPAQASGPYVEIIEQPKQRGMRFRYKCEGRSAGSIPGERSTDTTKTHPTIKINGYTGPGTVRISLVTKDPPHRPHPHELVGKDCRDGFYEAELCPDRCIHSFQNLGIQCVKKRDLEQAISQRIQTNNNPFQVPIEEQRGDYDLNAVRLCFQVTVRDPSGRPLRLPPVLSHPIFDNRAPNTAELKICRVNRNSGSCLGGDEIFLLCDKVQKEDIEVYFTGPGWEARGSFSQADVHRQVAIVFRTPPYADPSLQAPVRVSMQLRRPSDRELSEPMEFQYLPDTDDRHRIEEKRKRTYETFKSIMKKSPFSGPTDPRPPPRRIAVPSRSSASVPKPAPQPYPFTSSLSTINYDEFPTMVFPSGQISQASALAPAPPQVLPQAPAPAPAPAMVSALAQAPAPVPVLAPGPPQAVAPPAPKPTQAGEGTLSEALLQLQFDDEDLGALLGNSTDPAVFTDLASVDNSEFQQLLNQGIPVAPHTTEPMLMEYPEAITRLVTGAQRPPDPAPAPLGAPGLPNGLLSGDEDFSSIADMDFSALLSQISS", "assay": "(§1) Binding affinity to recombinant FLAG-tagged p65 (unknown origin) expressed in HEK293T cells assessed as retention time of carbamidomethylation on Cys38 residue of C38EGRSAGSIPGERSTDTTK56 with m/z 814.7165 measured following LysC digestion at 10 uM incubated for 3 hrs by HCD/EThcD based mass spectrometry", "format": "cell-based"}, "Transcription factor p65 [10]": {"molecular_target": "T2, Transcription factor p65", "assay": "as §1, with “814.7164” for “814.7165”", "format": "cell-based"}, "[11]": {"assay": "Ratio of IC50 for antiproliferative activity against mutant HEK293T cells overexpressing p65 C38A mutant to IC50 for antiproliferative activity against HEK293T cells", "format": "functional, Homo sapiens"}, "Transcription factor p65 [12]": {"molecular_target": "T2, Transcription factor p65", "assay": "Binding affinity to recombinant FLAG-tagged p65 (unknown origin) expressed in HEK293T cells assessed as 490.2203 Da modification on Cys38 residue of C38EGRSAGSIPGERSTDTTK56 measured following LysC digestion at 10 uM incubated for 3 hrs by HCD/EThcD based mass spectrometry", "format": "cell-based"}, "[13]": {"assay": "Displacement of biotin-labeled p65 binding oligonucleotides from p65/p65-C38A mutant (unknown origin) overexpressed in HEK293T cell nuclear extract incubated for 2 hrs by electrophoretic mobility shift assay", "format": "subcellular, Homo sapiens, Nucleus"}, "HEK-293T [14]": {"system": "HEK-293T", "assay": "Antiproliferative activity against HEK293T cells overexpressing p65 C38A mutant assessed as inhibition of cell proliferation incubated for 72 hrs by Alamar Blue dye based fluorescence analysis", "format": "functional", "settings": "Homo sapiens"}, "Transcription factor p65 [15]": {"molecular_target": "T2, Transcription factor p65", "assay": "Displacement of biotin-labeled p65 binding oligonucleotides from p65 (unknown origin) overexpressed in HEK293T cell nuclear extract incubated for 2 hrs by electrophoretic mobility shift assay", "format": "subcellular, Nucleus"}, "RAW264.7 [16]": {"system": "RAW264.7", "assay": "Inhibition of NF-kappaB signaling pathway in mouse RAW264.7 cells assessed as decrease in iNOS protein expression at 10 to 75 uM incubated for 6 hrs by western blot analysis", "format": "cell-based", "settings": "dose 10-75 µM"}},
  "note": "The source made the active and inactive calls. The rule behind the calls is not given here.",
  "data": [
    {"smiles": "C=C1C(=O)[C@]23C[C@H]1C[C@H](OC(C)=O)[C@H]2[C@]1(C)[C@@H](OC(C)=O)C[C@H](O)C(C)(C)[C@H]1C(=O)[C@@H]3OC(C)=O", "note": "[ADENANTHIN]", "values": [
      {"measurement": "IC50", "setting": "HEK-293T [1]", "value": 0.72, "unit": "µM"},
      {"measurement": "IC50", "setting": "HEK-293T [2]", "value": 0.81, "unit": "µM"},
      {"measurement": "Ratio IC50", "setting": "[3]", "value": 2},
      {"measurement": "inhibition", "setting": "RAW264.7 [4]", "value": "Active"},
      {"measurement": "inhibition", "setting": "RAW264.7 [5]", "value": "Dose-dependent-effect"},
      {"measurement": "IC50", "setting": "HEK-293T [6]", "value": 9.94, "unit": "µM"},
      {"measurement": "inhibition", "setting": "RAW264.7 [7]", "value": "Active"},
      {"measurement": "inhibition", "setting": "[8]", "value": "Dose-dependent-effect"},
      {"measurement": "Retention time", "setting": "Transcription factor p65 [9]", "value": 14.4, "unit": "min"},
      {"measurement": "Retention time", "setting": "Transcription factor p65 [10]", "value": 14.6, "unit": "min"},
      {"measurement": "Ratio IC50", "setting": "[11]", "value": 10},
      {"measurement": "Activity", "setting": "Transcription factor p65 [12]", "value": "Active"},
      {"measurement": "IC50", "setting": "[13]", "value": "~100", "unit": "µM"},
      {"measurement": "IC50", "setting": "HEK-293T [14]", "value": 2, "unit": "µM"},
      {"measurement": "IC50", "setting": "Transcription factor p65 [15]", "value": "~40", "unit": "µM"},
      {"measurement": "inhibition", "setting": "RAW264.7 [16]", "value": "Active"}
    ]}
  ]
}
